Data taken from patent US20240083872A1, “CYCLIC AMINE DERIVATIVES HAVING SEROTONIN RECEPTOR BINDING ACTIVITY” (Shionogi & Co., Ltd., priority 2020, published 2024).
Like-named read-outs stand apart in the source and are kept apart here.

Key:
[1] = target: human recombinant 5-HT2C receptor (Homo sapiens (Human), UniProt P28335); experiment: 5-HT2C receptor binding inhibition test ([3H]-Mesulergine)
Experimental: (§1) (Each Experimental Condition)
Cell membrane: Jump-In HEK cell membrane (expressing human recombinant 5-HT2C receptor)
(§2) Assay buffer: Tris-HCl 50 mmol/L (pH 7.4) containing NaCl 120 mmol/L, MgCl2.6H2O 1 mmol/L, KCl 5 mmol/L, 0.1% BSA, and CaCl2 2 mmol/L
Radioactive ligand: [^3H]-Mesulergine around Kd value calculated by the following method
(§3) Non-specific ligand: Serotonin HCl
The Kd value was calculated when the lot of cell membrane was changed. In advance, 0.5 μL of a 1 mmol/L compound for non-specific binding calculation dissolved in DMSO or DMSO was dispensed into a microplate, and the cell membrane was diluted with an Assay buffer. The radioactive ligand solution was serially diluted and the count was confirmed with a liquid scintillator. Assay buffer containing diluted cell membrane was dispensed into a microplate at 50 μL/well. Then, the radioactive ligand solution was dispensed into a microplate at 50 μL/well, and the plate was sealed. It was allowed to stand at room temperature (25° C.) for 1.5 hours. During this period, 50 mmol/L Tris-HCl (pH 7.4) was dispensed into a GF/B UniFilter plate at 50 μL/well and allowed to stand at […] for 1 hour or longer. After that, filtration was performed with Cell harvester (PerkinElmer). The radioactive ligand solution was dispensed into an empty well of the GF/B UniFilter plate at 10 μL/well. After the GF/B UniFilter plate was dried at room temperature, MicroScinti 20 was dispensed into the GF/B UniFilter plate at 50 μL/well, and the plate was sealed. The GF/B UniFilter plate was allowed to stand overnight at room temperature. […] The Saturation curve was drawn from the measured value, and the Kd value was calculated from the slope of the Scatchard Plot.
(§4) (Binding Test of the Compound According to the Present Invention)
In advance, 0.5 μL of the compound solution dissolved in DMSO was dispensed into a microplate, and the cell membrane and the hot ligand were diluted with Assay buffer, respectively. Then, the Assay buffer containing the diluted cell membrane was dispensed into a microplate at 50 μL/well. Then, the radioactive ligand solution was dispensed into a microplate at 50 μL/well, and the plate was sealed. Then, it was allowed to stand at 37° C. for 2 hours. During this period, 50 mmol/L Tris-HCl (pH 7.4) was dispensed into a GF/B UniFilter plate at 50 μL/well and allowed to stand at 4° C. for 1 hour or longer. After that, filtration was performed with Cell harvester (PerkinElmer). After the GF/B UniFilter plate was dried at room temperature, MicroScinti 20 was dispensed into the GF/B UniFilter plate at 50 μL/well, and the plate was sealed. The GF/B UniFilter plate was allowed to stand overnight at room temperature. […] The non-specific binding was calculated from the radioactivity of [^3H]-Mesulergine in the presence of […] Serotonin HCl with the unlabeled ligand, and the total binding was calculated from the radioactivity of [^3H]-Mesulergine in the absence of the compound according to the present invention (Vehicle). Finally, the Ki value was calculated from the dose-response curve.
(§5) (The binding activity of the compound according to the present invention was calculated from the following binding inhibition rate (%).)
(§6) Inhibition rate (%)=[1−(c−a)/(b−a)]×100 • a; mean cpm of non-specific binding • b; mean cpm of total binding • c; cpm in the presence of the test compound

[2] = target: human recombinant 5-HT2A receptor (Homo sapiens (Human), UniProt P28223); experiment: 5-HT2A receptor binding inhibition test ([3H]-Ketanserin); settings: Jump-In HEK cell membrane
Experimental: Test Example 1: 5-HT2A Receptor Binding Inhibition Test
as §1
Cell membrane: Jump-In HEK cell membrane (expressing human recombinant 5-HT2A receptor)
as §2
Radioactive ligand: [^3H]-Ketanserin around Kd value calculated by the following method
as §3
The Kd value was calculated when the lot of cell membrane was changed. In advance, 0.5 μL of a 1 mmol/L compound for non-specific binding calculation dissolved in DMSO or DMSO was dispensed into a microplate, and the cell membrane was diluted with an Assay buffer. The radioactive ligand solution was serially diluted and the count was confirmed with a liquid scintillator. Assay buffer containing diluted cell membrane was dispensed into a microplate at 50 μL/well. Then, the radioactive ligand solution was dispensed into a microplate at 50 μL/well, and the plate was sealed. It was allowed to stand at room temperature (25° C.) for 1.5 hours. During this period, 50 mmol/L Tris-HCl (pH 7.4) was dispensed into a GF/B UniFilter plate at 50 μL/well and allowed to stand at 4° C. for 1 hour or longer. After that, filtration was performed with Cell harvester (PerkinElmer). The radioactive ligand solution was dispensed into an empty well of the GF/B UniFilter plate at 10 μL/well. After the GF/B UniFilter plate was dried at room temperature, MicroScinti 20 was dispensed into the GF/B UniFilter plate at 50 μL/well, and the plate was sealed. The GF/B UniFilter plate was allowed to stand overnight at room temperature. The radioactivity of [^3H]-Ketanserin bound to the 5-HT2A receptor was measured using Microbeta2 (PerkinElmer) at a measurement time of 1 min/well. The Saturation curve was drawn from the measured value, and the Kd value was calculated from the slope of the Scatchard Plot.
as §4
In advance, 0.5 μL of the compound solution dissolved in DMSO was dispensed into a microplate, and the cell membrane and the hot ligand were diluted with Assay buffer, respectively. Then, the Assay buffer containing the diluted cell membrane was dispensed into a microplate at 50 μL/well. Then, the radioactive ligand solution was dispensed into a microplate at 50 μL/well, and the plate was sealed. Then, it was allowed to stand at room temperature (25° C.) for 1.5 hours. During this period, 50 mmol/L Tris-HCl (pH 7.4) was dispensed into a GF/B UniFilter plate at 50 μL/well and allowed to stand at 4° C. for 1 hour or longer. After that, filtration was performed with Cell harvester (PerkinElmer). After the GF/B UniFilter plate was dried at room temperature, MicroScinti 20 was dispensed into the GF/B UniFilter plate at 50 μL/well, and the plate was sealed. The GF/B UniFilter plate was allowed to stand overnight at room temperature. The radioactivity of [^3H]-Ketanserin bound to the 5-HT2A receptor was measured using Microbeta2 (PerkinElmer) at a measurement time of 1 min/well. The non-specific binding was calculated from the radioactivity of [^3H]-Ketanserin in the presence of […] Serotonin HCl with the unlabeled ligand, and the total binding was calculated from the radioactivity of [^3H]-Ketanserin in the absence of the compound according to the present invention (Vehicle). Finally, the Ki value was calculated from the dose-response curve.
as §5, §6

[3] = Jump-In HEK cell membrane, [3H]-Mesulergine, read-out: human serotonin 5-HT2C receptor binding inhibitory activity, Ki value
[4] = read-out: human serotonin 5-HT2A receptor binding activity, Ki value
[5] = Jump-In HEK cell membrane, [3H]-Mesulergine, read-out: h-5-HT2C Ki

Chain of human recombinant 5-HT2A receptor (P28223 whole entry): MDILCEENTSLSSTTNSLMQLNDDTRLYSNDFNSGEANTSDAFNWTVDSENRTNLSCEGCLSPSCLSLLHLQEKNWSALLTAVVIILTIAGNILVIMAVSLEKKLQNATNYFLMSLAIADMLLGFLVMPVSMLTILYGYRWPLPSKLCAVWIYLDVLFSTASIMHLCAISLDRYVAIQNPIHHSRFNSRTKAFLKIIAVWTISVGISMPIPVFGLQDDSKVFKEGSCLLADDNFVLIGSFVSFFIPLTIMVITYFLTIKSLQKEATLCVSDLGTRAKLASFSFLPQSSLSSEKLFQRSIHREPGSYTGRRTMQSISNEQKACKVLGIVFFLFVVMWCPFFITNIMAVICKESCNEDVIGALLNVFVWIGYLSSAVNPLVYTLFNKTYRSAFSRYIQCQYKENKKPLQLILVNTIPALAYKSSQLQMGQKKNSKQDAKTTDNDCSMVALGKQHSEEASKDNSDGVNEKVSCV
Chain of human recombinant 5-HT2C receptor (P28335 33-458): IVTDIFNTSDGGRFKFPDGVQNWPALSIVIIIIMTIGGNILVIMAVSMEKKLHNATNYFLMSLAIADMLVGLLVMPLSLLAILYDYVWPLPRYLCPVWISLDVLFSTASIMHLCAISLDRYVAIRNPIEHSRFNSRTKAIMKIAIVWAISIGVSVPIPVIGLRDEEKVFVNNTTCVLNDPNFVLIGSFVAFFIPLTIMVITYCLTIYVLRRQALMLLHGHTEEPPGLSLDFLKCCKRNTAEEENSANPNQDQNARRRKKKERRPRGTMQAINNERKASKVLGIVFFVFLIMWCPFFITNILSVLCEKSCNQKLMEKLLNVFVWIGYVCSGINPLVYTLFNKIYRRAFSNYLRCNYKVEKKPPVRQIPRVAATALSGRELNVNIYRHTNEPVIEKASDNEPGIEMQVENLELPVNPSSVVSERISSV

Ki [1, 5] [nM]	Ki ([2]; read-out: h-5-HT2A Ki) [nM]	Structure (SMILES)	Ki [1, 3] [nM]	Ki [2, 4] [nM]	Ki [1] [nM]
		CN1CCC(NC(=O)N(Cc2ccc(Oc3ccccc3)cc2)Cc2ccn(C)n2)CC1 [Compound I-003]	8.39	9.93	
10 to 100	< 10	COc1ccc(CN(Cc2ccc(F)cn2)C(=O)NC2CCN(C)CC2)cc1 [Compound I-042]			
100 to 5000	10 to 100	CC(C)COc1ccc(CN(Cc2ccc(C#N)cn2)C(=O)NC2CCN(C)CC2)cc1 [Compound I-032]			
10 to 100	< 10	CCN1CCC(NC(=O)N(Cc2ccc(OCC(C)C)cc2)Cc2ccn(C)n2)CC1 [Compound I-069]			
		CCCCOc1ccc(CN(Cc2coc(C)n2)C(=O)CC2CCN(C)CC2)cc1F [Compound I-123]	1.39	0.506	
		CC(C)COc1ccc(CN(Cc2ccn(C)n2)C(=O)NC2CCCN(C)CC2)cc1 (racemic) [Compound I-004]	11.5	4.51	
		Cc1nc(CN(Cc2ccc(OCC(C)C)cc2F)C(=O)NC2CCN(C)CC2)co1 [Compound I-117]	0.315	0.82	
		CC(C)COc1ccc(CN(Cc2cnn(C)n2)C(=O)N[C@H]2CCN(C)CC23CC3)cc1 [Compound I-103]	0.634	1.89	
10 to 100	< 10	CC(C)COc1ccc(CN(Cc2ccn(C)n2)C(=O)NC2CCN(CC3CCC3)CC2)cc1 [Compound I-076]			
100 to 5000	10 to 100	CC(C)COc1ccc(CN(Cc2ccn(C)n2)C(=O)NCC2CN(C)C2)cc1 [Compound I-059]			
10 to 100	< 10	CC(C)COc1ccc(CN(Cc2ccsc2)C(=O)NC2CCN(C)CC2)cc1 [Compound I-002]			
		Cc1nc(CN(Cc2ccc(CCC(F)(F)F)cc2F)C(=O)NC2CCN(C)CC2)co1 [Compound I-104]	0.484	0.952	
10 to 100	10 to 100	CC(C)COc1ccc(CN(Cc2nccs2)C(=O)NC2CCN(C)CC2)cc1 [Compound I-025]			
100 to 5000	10 to 100	CC(C)COc1ccc(CN(Cc2ccn(C)n2)C(=O)NC2(C)CCN(C)CC2)cc1 [Compound I-066]			
10 to 100	10 to 100	COc1ccc(CN(Cc2ccn(C)n2)C(=O)NC2CCN(C)CC2)c(F)c1 [Compound I-013]			
100 to 5000	100 to 5000	CC(C)COc1ccc(CN(Cc2ccn(C)n2)C(=O)N[C@@H]2CCNCC2(F)F)cc1 [Compound I-027]			
10 to 100	10 to 100	CC(C)COc1ccc(CN(Cc2ccc(F)cn2)C(=O)N[C@@H]2CCNC[C@@H]2F)cc1 (single isomer, unassigned) [Compound I-022]			
		CN1CCC(NC(=O)N(Cc2cnn(C)n2)Cc2ccc(OCC(F)(F)C(F)(F)F)cc2F)CC1 [Compound I-122]	0.281	0.824	
10 to 100	< 10	CC(C)COc1ccc(CN(Cc2ccccn2)C(=O)NC2CCN(C)CC2)cc1 [Compound I-007]			
< 10	< 10	CC(C)COc1ccc(CN(Cc2ccn(C)n2)C(=O)NC2CCN(C)CC23CC3)cc1 (racemic) [Compound I-045]			
		CC(C)COc1ccc(CN(Cc2ccn(C)n2)C(=O)CC2CCN(C)CC2)cc1 [Compound I-012]	33	6.02	
10 to 100	10 to 100	COc1ccc(CN(Cc2coc(C)n2)C(=O)OC2CCN(C)CC2)cc1 [Compound I-095]			
100 to 5000	10 to 100	CCCCOc1ccc(CN(Cc2coc(C)n2)C(=O)CCC2CCNCC2)cc1F [Compound I-127]			
10 to 100	10 to 100	CC(C)Oc1ccc(CN(Cc2ccn(C)n2)C(=O)NC2CCN(C)CC2)cc1 [Compound I-047]			

Structure (SMILES)	Ki [1, 5] [nM]	Ki ([2]; read-out: h-5-HT2A Ki) [nM]	Ki [1, 3] [nM]	Ki [2, 4] [nM]	Ki [1] [nM]
CCCc1ccc(CN(Cc2coc(C)n2)C(=O)NC2CCN(C)CC2)c(F)c1 [Compound I-114]	< 10	< 10			
CCCCOc1ccc(CN(Cc2cnn(C)n2)C(=O)N[C@H]2CCN(C)CC23CC3)c(F)c1 [Compound I-097]	< 10	< 10			
CCCCOc1ccc(CN(Cc2coc(C)n2)C(=O)N[C@H]2CCN(C)CC23CC3)cc1F [Compound I-090]	< 10	< 10			
Cc1nc(CN(Cc2ccc(CCC(F)(F)F)cc2)C(=O)NC2CCN(C)CC2)co1 [Compound I-105]	< 10	< 10			
CC(C)COc1ccc(CN(Cc2ccn(C)n2)C(=O)N[C@H]2CCN(C)C[C@@H]2C)cc1 [Compound I-064]	< 10	< 10			
CCCCOc1ccc(CN(Cc2coc(C)n2)C(=O)NC2CCN(C)CC2)cc1F [Compound I-087]	< 10	< 10			
CC(C)COc1ccc(CN(Cc2cnn(C)n2)C(=O)NC2CCN(C)CC2)cc1F [Compound I-116]	< 10	< 10			
CC(C)COc1ccc(CN(Cc2ccn(C)n2)C(=O)NC2CCN(C)C3(CCC3)C2)cc1 (racemic) [Compound I-067]	< 10	< 10			
CC(C)COc1ccc(CN(Cc2ccn(C)c2)C(=O)OC2CCN(C)CC2)cc1 [Compound I-092]	< 10	< 10			
CC(C)COc1ccc(CN(Cc2ccn(C)n2)C(=O)N[C@H]2C[C@H]3CC[C@@H](C2)N3C)cc1 [Compound I-070]		10 to 100			10 to 100
Cc1nc(CN(Cc2ccc(OCC(C)C)cc2)C(=O)N[C@H]2CCNC[C@H]2F)co1 [Compound I-080]	< 10	< 10			
CCCCOc1ccc(CN(Cc2cnn(C)n2)C(=O)N[C@H]2CCN(C)CC23CC3)cc1F [Compound I-096]	< 10	< 10			
CC(C)COc1ccc(CN(Cc2ccn(C)n2)C(=O)N[C@@H]2CCN(C)C[C@H]2C)cc1 [Compound I-065]	< 10	< 10			
